Laboratory results taken from patent US20040147595A1, “Biofilm degrading or sloughing compositions and methods” (priority 2001, published 2004).
“And” between values parts separate entries of the source, which are not always exact repeats. Equal values may be shown once. “Also recorded” adds a separate entry of the source. Read-outs that look alike come from different tables or passages of the source.

Tests used:
[1] = tested on: OHHL induced LuxR dependent expression of GFP; test: Quantitative furanone inhibition of the LuxR-PluxI-gfp(ASV) quorum sensor in E. coli MT102 (pJBA89); type: cell-based, Escherichia coli; settings: gradient of furanone concentration lowering RFU to 40% versus OHHL concentration (5-100 nM)
Description: To analyse the AHL antagonist activity of the halogenated furanones we tested the compounds for their ability to inhibit 3oxo-C6-HSL (OHHL) induced LuxR dependent expression of green fluorescent protein (GFP) from a Pgfp(ASV) fusion in the AHL monitor strain E. coli MT102 harbouring pJBA89 (Andersen et al., 2001).
The medium used is minimal ABT containing 0.5% glucose and 0.5% Casamino Acids. In growing cultures of the AHL monitor strain E. coli Mt102 (pJBA89) encoding […] and a P-gfp(ASV) fusion, GFP(ASV) is produced immediately upon OHHL addition specifically from the LuxR controlled P-gfp(ASV) fusion gene. The sensitivity is high (responsive to as little as 3 nm OHHL) and due to the instability built into the GFP (ASV) variant there is no background production of green fluoroscence (Andersen et al., 2001). GFP expression from the AHL monitor strain E. coli MT102 (pJBA89) and the control strain MT102 harbouring the lacl^q, Plas-gfp(ASV) IPTG inducible expression system pMH197 was quantified in the following way. Overnight cultures were diluted four fold in fresh medium and incubated for one hour at 30° C. while OHHL and furanone compounds in the required concentrations were mixed in the wells of microtiter dishes. […] When absolute values were required, green fluoroscence was measured on a fluorometer (model RF-1501; Shimadzu, Tokyo, Japan) act at an excitation wavelength of 475 nm and emission detection at 515 nm. To establish a correlation between the colour code of the ARGUS-50 captured images and green fluorescence, both colour and relative fluorescence units (RFU), were determined for a dilution series of an E. coli MT102 (pJBA89) culture which had been incubated with […]. […]
From the second plot, the furanone concentration reducing the relative activity to 40% (ID60) is determined for each OHHL concentration. […]
To enable easy comparison of the strength of the furanones, an inhibition index (IIX40) is calculated for each furanone compound. […]

[2] = tested on: las quorum sensing system (lasB-gfp(ASV) Plac-lasR); test: pMHLAS lasB-gfp(ASV) reporter in E. coli MT102; type: cell-based, Escherichia coli; settings: for induction of the lasB-gfp(ASV) monitor by AHL compounds: E. coli with pMHLAS, AHLs 0 to 1000 nM
Description: (§1) AHL and furanone bioassay. Strains were grown exponentially in LB or ABt medium supplemented with 0.5% glucose at 30° C., shading at 250 rpm. At an optical density of approximately 0.8. the cultures were diluted and split into subcultures in glass culture flasks. AHLs and furanone 56 were added to appropriate concentrations and the cultures were further incubated at 30° C. under vigorous shaking. Culture samples were retrieved at various time intervals and green fluorescence was measured with a fluorometer (model RF-1501, Shimadzu, Tokyo, Japan) set at an excitation wavelength of 475 nm and emission wavelength of 515 nm. Relative fluorescence was calculated as green fluorescence normalized to 1 ml culture divided by the optical density (OD600 nm.
(§2) Initially, the lasB-gfp(ASV) translational fusion (OdDHL sensor) was thoroughly characterized with respect to its sensitivity and specificity. A culture of E. coli hosting the pMHLAS monitor plasmid was diluted and spilt into several subcultures which were then supplemented with AHLs at concentrations ranging from 0 to 1000 nM. […] When the pMHLAS based reporter system was hosted by PAO-JP2. the OdDHL concentration required for half-maximal activation of the lasB-gfp(ASV) fusion was 8 nM (data not shown). In single copy on the chromosome of PAO-JP2, the OdDHL concentration on required for half-maximal activation of lasB expression was approximately 250 nM (FIG. 2b). Green fluorescent cells were visible by epifluorescence microscopy at a minimal OdDHL concentration of 50 nM (FIG. 2c).
Effect of the furanone in a heterologous background. The direct regulation exerted by the las regulon on lasB expression is well described by numerous studies (Gambello & Iglewski, 1991: Pearson et al., 1994; Pearson et al., 1997). Regulatory complexity is added by the observation that the las quorum sensing circuit itself is subject to global regulators (Albus et al., 1997; Whiteley et al., 2000) and that lasB expression is also controlled by other regulators than LasR (Brumlik & Storey, 1992; Pesci et al., 1999; Schictman et al., 1995). It was, therefore, important to rule out that QSI effect, observed is not caused by furanone interaction with high levels of control. Since there is no AHL-based quorum sensing system present in Escherichia coli (Williams et al., 2000), this bacterium provides an unbiased and well-defined genetic background for studying the direct effects of the furanone on the P. aeruginosa las quorum sensing system. We repeated the above-described experiments using E. coli MT102 as a heterologous host for the reporter system. […] This is likely to be attributed to the increased copy number of the reporter plasmid.

chitinase = test: Virulence factor production: chitinase activity of PAO-JP2 supernatant; type: cell-based, Pseudomonas aeruginosa
Description: The chitinase activity assay was performed as described by the assay manufacturer (Loewe Biochemica, Sauerlach, Germany). Supernatant (560 μl) of cultures prepared as described for the elastase assay was mixed with carboxymethyl-chitin-remazol brilliant violet (200 μl) and sodium phosphate buffer (40 μl, 1 M, pH 7.5). The reaction mixture was incubated for 18 h at 40° C. in a waterbath. The reaction was stopped by addition of HCl (200 μl, 2 N) and kept for 15 min on ice. After centrifugation (10 min at 15000 rpm), the absorbance (OD550 nm) of the supernatant was measured. The relative chitinase activity was calculated as OD550 nm/OD600 nm normalized to 1 ml supernatant.

lasB promotor = settings: Gray et al., 1994; cited from earlier work
[3] = tested on: las quorum sensing system (lasB-gfp(ASV) expression); test: AHL and furanone bioassay, PlasB-gfp(ASV) Plac-lasR reporter in planktonic PAO-JP2; type: cell-based, Pseudomonas aeruginosa
Description: as §1, §2
Noteworthy, the inhibitory effect of furanone 56 was relieved at increased concentrations of OdDHL.

elastase = test: Virulence factor production: elastase (proteolytic) activity of PAO-JP2 supernatant; type: cell-based, Pseudomonas aeruginosa
Description: Measurements of virulence factors. PAO-JP2 was grown in LB medium at 37° C. and shaking at 250 rpm to an OD600 nm of 1.0. The culture was divided into seven subcultures, which were added 0, 70, or 1000 nm OdDHL and 0. 3. or 5 μg/ml furanone 58. The cultures were grown for an additional 4 hours at 37° C. The proteolytic activity was measured as described by Ayora & G{overscore (o)}tz (1994). Azocasein (250 μl 2%, Sigma, St. Louis, Mo.) in 50 mM Tris/HCl and steril-filtered (Ø 0.2 μm) supernatant (150 μl) were incubated for 4 h at […] After precipitation of undigested substrate with trichloroacetic acid (1.2 ml 10%) for 15 minutes, followed by 10 minutes centrifugation at 1000 rpm, NaOH (1.4 ml 1 M) were added to the supernatant. The relative protease activity was measured as the absorbance at 440 nm (OD440 nm) of the supernatant divided by the optical density of the culture (OD600 nm ).

lasB promoter = settings: Pearson et al (1995), pKDT17 in PAO-R1; read-out: OdDHL required for half-maximal activation of a similar construct; cited from earlier work
[4] = tested on: lasB-gfp(ASV) reporter in P. aeruginosa PAO-JP2 biofilm; test: OdDHL-mediated signalling in PAO-JP2 flowcell biofilm, lasB-gfp(ASV) reporter, CSLM; type: cell-based, Pseudomonas aeruginosa
Description: P. aeruginosa biofilms. Biofilms were grown at 30° C. in three-dimensional flow cells (Christensen et al., 1999) with individual channel dimensions of 0.3×4×40 mm supplied With ABt minimal medium supplemented with 2% LB. The flow system was assembled and prepared as described by Christensen et al. (1999). The substratum consisted of a microscope glass coverslip (Knittel 24×50 mm st1, Knittel Glaser, Braunschweig, Germany). Cultures for inoculation of the flow channels were prepared in the following way: P. aeruginosa strains were streaked on LB plates with the appropriate antibiotics and incubated for 24 h at 37° C. From each plate a single colony was used for inoculation of 10 ml ABt with 10% LB. The cultures were grown at, 30° C. for 18 h before they were diluted to an OD600 nm of 0.1 in sterile 0.9% NaCl and used for inoculation of the flow channels. Medium flow was kept at a constant rate of 3 mL/h, equivalent to a mean flow velocity of 0.7 mm/s, using a Watson-Marlow 205S peristaltic pump (Watson-Marlow, Falmouth, England). Biofilms were grown for 24 hours before being shifted to media containing AHL and furanone.
Scanning confocal laser microscopy (SCLM). Microscopic inspection and image acquisition were performed an a scanning confocal laser microscope (model TCS4D, Leica Lasertechnik GmbH, Heldelberg, Germany) equipped with a 63×/1.32-0.6 oil objective. The microscope was equipped with a motorized and programmable xy-stage, which was used for monitoring single colonies during the biofilm experiments. At the beginning of each online experiment, the microscope was programmed to track single randomly selected microcolonies; the sensitivity of photo multipliers and the laser intensity were adjusted and thereafter kept constant through out the duration of the experiments. Image scanning was carried out using the 488 nm and 568 nm lines of an Ar/Kr laser for detection of Gfp and Rfp, respectively. Visualization of captured images was performed using the IMARIS software package (Bitplane AG, Zúrich, Switzerland) running on a Silicon Graphics Indigo 2 workstation (Silicon Graphics, Mountain View, Calif. USA).
Inhibition of AHL-mediated signalling in P. aeruginosa biofilms. The lasB-gfp(ASV) reported was integrated into the chromosome of PAO-JP2 to ensure stable segregation and a constant gene dosage of the reported system. The strain was growth in flowcells for 24 hours in ABt-LB medium and a 10-15 μm thick biofilm developed. The media flow was subsequently switched to ABt-LB medium containing the appropriate AHL and furanone concentrations. The development of green fluorescence was monitored online by CSLM for 8 hours.

P. aeruginosa = settings: cited from earlier work

CCCCC1=C(Br)/C(=C/Br)OC1=O [Compound 2]
inhibition index (IIX40) [1]: 0.75 mole of furanone per mmole of

CCCCCCCC(=O)CC(=O)N[C@H]1CCOC1=O [ODHL, N-[3-oxo-decanoyl]-L-homoserine lactone]
induction of the lasB-gfp(ASV) monitor by AHL compounds [2]: activated lasB-expression albelt at a lower level; also recorded: less efficient

CCCCCC(=O)CC(=O)N[C@H]1CCOC1=O [OOHL, N-[3-oxo-octanoyl]-L-homoserine lactone]
induction of the lasB-gfp(ASV) monitor by AHL compounds [2]: less efficient

CCCCCCCCCC(=O)CC(=O)N[C@H]1CCOC1=O [OdDHL, N-[3-oxo-dodecanoyl]-L-homoserine lactone]
chitinase activity (chitinase; PAO-JP2, 70 nm OdDHL): induced | chitinase activity in furanone-treated culture (chitinase; addition of 1 μM OdDHL): entirely restored | induction of the promotor in response to OdDHL addition (lasB promotor): 63 fold | minimal OdDHL concentration at which green fluorescent cells were visible by epifluorescence microscopy ([3]; mini-Tn5 reporter in PAO-JP2): 50 nM | EC50 ([3]; pMHLAS based (plasmid) reporter hosted by PAO-JP2, data not shown, read-out: OdDHL concentration required for half-maximal activation of the lasB-gfp(ASV) fusion): 8 nM | EC50 ([3]; reporter in single copy on the chromosome of PAO-JP2, read-out: OdDHL concentration required for half-maximal activation of lasB expression): ~250 nM and 250 nM | lowest OdDHL concentration detected by the reporter ([3]; single chromosomal copy, data not shown): 20 nM | elastase activity (elastase; PAO-JP2, 70 nm OdDHL): induced | elastase activity in furanone-treated culture (elastase; addition of 1 μM OdDHL): entirely restored | EC50 (lasB promoter): 1000 nM | lowest OdDHL concentration inducing lasB promoter activity in PAO-JP2 biofilms [4]: 20 nM | expression of the lasB-gfp(ASV) reporter fusion in biofilm ([4]; 40 nm OdDHL): induced and visible in the single cells within four hours | induction of the lasB-gfp(ASV) monitor by AHL compounds [2]: most efficient inducer | increased responsiveness to OdDHL of the E. coli strain harboring the lasB reporter ([2]; compared with the PAO-JP2 reporter): approx. 10 fold

NC[C@H]1O[C@H](O[C@H]2[C@H](O)[C@@H](O[C@H]3O[C@H](CO)[C@@H](O)[C@H](N)[C@H]3O)[C@H](N)C[C@@H]2N)[C@H](N)C[C@@H]1O [tobramycin]
resistance in the biofilm form compared to the planktonic cells (P. aeruginosa): 50,000 times
